In PubChem BioAssay (NCI):
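Each compound was tested at five concentrations against cells in 96-well plates for 48 hours. GI50 = concentration required for 50% inhibition of growth. TGI is the concentration that stops growth completely.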

Legend:
Experiment in all cases: DTP human tumour cell line panel, 48 h
[1] = system: K-562 leukemia
[2] = system: SK-MEL-28 melanoma
[3] = system: KM12 colon
[4] = system: SK-MEL-2 melanoma
[5] = system: CCRF-CEM leukemia
[6] = system: SR leukemia
[7] = system: IGROV1 ovarian
[8] = system: NCI-H522 lung
[9] = system: SNB-78 CNS
[10] = system: LXFL 529 NSCLC

Structure (SMILES)	GI50 [1]	TGI [1]	GI50 [2]	TGI [2]	GI50 [3]	TGI [3]	GI50 [4]	TGI [4]	GI50 [5]	TGI [5]	GI50 [6]	TGI [6]	GI50 [7]	TGI [7]	GI50 [8]	TGI [8]	TGI [9]	TGI [10]
C=C(C)[C@@H]1CC[C@]2(C(=O)O)CC[C@]3(C)[C@H](CC[C@@H]4[C@@]5(C)C/C(=C/c6cccc(I)c6)C(=O)C(C)(C)[C@@H]5CC[C@]43C)[C@@H]12	2370 nM	49.5 µM	3.09 µM	10.1 µM	1590 nM	3.6 µM	2400 nM	6.94 µM	2740 nM	10.3 µM	2710 nM	12.5 µM	2570 nM	8.7 µM	2100 nM	6.94 µM		
NC(CCc1ncc(-c2ccccc2)s1)C(=O)O (centres undefined)		> 100 µM		> 100 µM		> 100 µM				> 100 µM				> 100 µM		> 100 µM	> 100 µM	> 100 µM
CCCCCCCCCCC[C@@H](C[C@H]1OC(=O)[C@H]1CCCCCC)OC(=O)[C@@H](CC(C)C)NC=O	4360 nM	47.3 µM	19.8 µM	> 100 µM	3920 nM	34.6 µM	6040 nM	24.8 µM	1310 nM	76.4 µM	3520 nM	42.9 µM	7620 nM	55.7 µM	5560 nM	26.4 µM		
COc1ccc(C(=O)/C=C/c2cc(-c3ccc4c(c3)OCO4)n[nH]2)cc1OC	2470 nM	16.7 µM	5.76 µM	19.3 µM	2860 nM	9.48 µM	6930 nM	23.2 µM	2520 nM	9.58 µM	1270 nM	6.48 µM	2790 nM	9.2 µM	1820 nM	4.44 µM		
O=C1CCSC(=S)N1c1ccc(Br)c(Cl)c1		> 100 µM		34.9 µM		85.9 µM		58.2 µM		> 100 µM		> 100 µM		49.5 µM		42.6 µM		
Oc1ccc2ccccc2c1N=Nc1ccc(Cl)cc1		> 100 µM		> 100 µM		> 100 µM		> 100 µM		> 100 µM		> 100 µM		> 100 µM		> 100 µM		
O=C1CCCC(O)=C1SC1=C(O)CCCC1=O		> 100 µM		> 100 µM		> 100 µM		> 100 µM		> 100 µM				> 100 µM		> 100 µM	> 100 µM	
CCCC(C)c1c(Cl)nc(Cl)nc1Cl (centres undefined)		> 100 µM		13.4 µM		10.2 µM		> 100 µM		> 100 µM		> 100 µM		36.4 µM		5.32 µM		
CCCC(=O)c1ccc(=O)n(C)c1		> 100 µM		> 100 µM		> 100 µM		> 100 µM		> 100 µM		> 100 µM		> 100 µM		> 100 µM		> 100 µM
Cc1cn([C@H]2C[C@H](O)[C@@H](CO)O2)c(=O)nc1N		> 100 µM		> 100 µM		> 100 µM		> 100 µM		> 100 µM		> 100 µM		> 100 µM		> 100 µM		
CCCCCCCCCCCC1=NC(C)(C)CN1CC(C)O (centres undefined)	1620 nM	3.33 µM	1.75 µM	3.26 µM	2250 nM	4.84 µM	2410 nM	6.12 µM	2850 nM	11.9 µM	1470 nM	3.75 µM	1890 nM	4.75 µM	3420 nM	15.9 µM		
Cc1ccc(-c2cc(-c3ccc(C)cc3)nc(N3CCN(CCNc4ccnc5cc(Cl)ccc45)CC3)n2)cc1	2400 nM	> 50 µM	1.91 µM	9.82 µM	5700 nM	39.2 µM	7890 nM	20.3 µM	1770 nM	> 50 µM	675 nM	> 50 µM	3080 nM	12.3 µM	5650 nM	22 µM		
O=C1/C(=C/c2ccc(Cl)cc2)CN(C(=O)CCN2CCC(=NO)CC2)C/C1=C\c1ccc(Cl)cc1	230 nM		1.57 µM	2.96 µM	388 nM	0.935 µM	1950 nM	3.92 µM	317 nM	> 22.3 µM	114 nM		807 nM	2.05 µM	731 nM	2.29 µM		
O=C(Nc1ccc(Oc2ccc(NC(=O)Nc3ccc([N+](=O)[O-])cc3)cc2)cc1)Nc1ccc([N+](=O)[O-])cc1	826 nM		3.28 µM	43.2 µM	1530 nM	> 29.7 µM	2030 nM	4.29 µM	610 nM	3.22 µM	1350 nM	4.87 µM	1900 nM	4.71 µM	1030 nM	4.32 µM		
O=C(Cn1c(C(=O)c2ccc(Cl)cc2)nc(-c2ccccc2)c1-c1ccccc1)c1ccc(Cl)cc1	> 100000 nM	> 100 µM	> 100 µM	> 100 µM	> 100000 nM	> 100 µM	> 100000 nM	> 100 µM	> 100000 nM	> 100 µM	> 100000 nM	> 100 µM	> 100000 nM	> 100 µM	> 100000 nM	> 100 µM		
CCOC(=O)Cn1c(-c2nonc2NC(=O)c2ccccc2F)nc2ccccc21	505 nM	> 100 µM	17.9 µM	> 100 µM	1930 nM	> 100 µM	41300 nM	> 85.5 µM	> 100000 nM	> 100 µM	411 nM	> 100 µM	9850 nM	> 100 µM	12700 nM	> 78.9 µM		
COc1cc(OC)c(F)c(COc2cnc(Nc3cnn(CCO)c3)nc2)c1F	343 nM	> 100 µM	1.85 µM	> 100 µM	431 nM	7.23 µM	404 nM	2.71 µM	669 nM	> 100 µM	274 nM		595 nM	> 100 µM	341 nM	1.65 µM		
C[N+](C)(C)CC(CC(=O)[O-])C1CC1 (centres undefined)		> 100 µM		> 100 µM		> 100 µM		> 100 µM		> 100 µM				> 100 µM		> 100 µM		> 100 µM
C=C1CCC2C(C)(CO)C(O)CCC2(C)C1C/C=C1/CCOC1=O (centres undefined)		> 100 µM				> 100 µM		> 100 µM		> 100 µM		> 100 µM		> 100 µM		> 100 µM		> 100 µM
